# Measurements taken from patent US4540691A, “Dopamine agonists and use thereof” (Nelson Research & Development Co., priority 1984, dated 1985).
# pIC50: −log10 of the molar value. “Also recorded” adds a separate entry of the source.
# How the values were obtained:
# [1] = test system: homovanillic acid, HVA (corpus striatum); assay: Effect on dopamine metabolism: lowering of striatal HVA levels; format: in vivo, Female Wistar rats; conditions: for HVA % control / HVA content of corpus striatum: injected, 60 min, mean ± S.E.M.
# Description: Dopamine agonists are known to produce a lowering of the striatal levels of one of the main metabolites of dopamine, homovanillic acid, HVA, (Feenstra et al., 1983 Arch. Pharmacol., 324, 108).
# Female Wistar rats (160-180g) were injected with the drugs under test dissolved in saline and were then decapitated 60 min later. The HVA content of the corpus striatum was determined according to the method of Westerink and Mulder (J. Neurochem., 1981 36, 1449).
# [2] = test system: presynaptic dopamine receptors; assay: Presynaptic DA activity in the GBL model: counteracting GBL-induced rise in striatal DOPA levels; format: in vivo, rat; conditions: for % Reversal vs. GBL group / DOPA (striatal level): 0.2 μmol/kg; for % Reversal vs. GBL group: GBL + NSD 1015 group = 0, NSD 1015 group = 100; for DOPA (striatal level): GBL model, NSD 1015 as decarboxylase inhibitor
# Description: The ability of a dopamine agonist to counteract the gamma-butyrolactone (GBL) induced rise in DOPA levels in the rat striatum is an indication of its activity at presynaptic dopamine receptors. (Walters and Roth, 1976 Arch. Pharmacol., 296, 5).
# The experiments were performed in rats according to the method of Walters and Roth (ibid). The striatal levels of DOPA were determined using the method of Westerink and Mulder (1981 J. Neurochem. 36, 1449). NSD 1015 was used as decarboxylase inhibitor.
# dopamine receptor = assay: Dopamine receptor agonist activity, overall conclusion from various tests; conditions: pre- and post-synaptic dopaminergic tests
# Description: The dopaminergic activity of three analogues (A,B,C) was evaluated in comparison with the indolic structural analogue RU 29717 (Nedelec et al., 1983, J. Med. Chem., 26, 522) in three test systems. Compounds B and C are within the scope of the present invention.
# DA receptor = assay: Radioligand binding assay: displacement of ^3 H-5,6-dihydroxy-N,N-dipropyl-2-aminotetralin (DA receptor agonist) from homogenates of rat corpus striatum; conditions: for pIC50: mean of 3 independent experiments each in triplicate, 10^-11 to 10^-5 M, read-out: IC50 (concentration of drug required to inhibit the specific binding by 50%)
# Description: The ability of the above compounds to displace the specific binding of ^3 H-5,6-dihydroxy-N,N-dipropyl-2-aminotetralin, a potent DA receptor agonist (Feenstra et al., Life Sci., 32, 1313 (1983)) to homogenates of rat corpus striatum was studied.
# The assay was performed essentially according to the method of Leysen and Gommeran J. Neurochem. 36, 201 (1981) for ^3 H-apomorphine binding.
# The IC50 is the concentration of drug required to inhibit the specific binding by 50%. The results are presented as the mean values of 3 independent experiments each analyzed in triplicate over the concentration range 10^-11 to 10^-5 M.
# [3] = literature background; cited from earlier work
# dopaminergic = conditions: literature background; cited from earlier work
# [4] = test system: adrenergic and serotonergic; conditions: literature background; cited from earlier work
SMILES,HVA % control ([1]; 0.4 μmol/kg) [% control],HVA content of corpus striatum ([1]; 0.4 μmol/kg) [µg/g],% Reversal vs. GBL group [2] [%],DOPA (striatal level) [2] [µg/g],dopamine agonist activity (general conclusion in words) (dopamine receptor),potency in binding assay (conclusion in words) (DA receptor),pIC50 (DA receptor),HVA % control ([1]; 0.2 μmol/kg) [% control],HVA content of corpus striatum ([1]; 0.2 μmol/kg) [µg/g],activity on HVA levels (conclusion in words) ([1]; conclusion),potency in GBL model (conclusion in words) ([2]; conclusion),emetic activity (in words) [3],dopaminergic agonist activity (in words) (dopaminergic),adrenergic and serotonergic activity (in words) [4]
CCCN1CCOC2c3ccccc3CCC21 (centres unmarked) [Compound A],91.8 ± 2.0,0.90 ± 0.02,4.5,5.25 ± 0.09,significantly less active,the least potent,6.96,–,–,–,–,–,–,–
CCCN1CCOC2c3cc(O)ccc3CCC21 (centres unmarked) [Compound C],48.0 ± 1.0,0.47 ± 0.01,94.6,2.08 ± 0.12,useful levels of dopamine agonist activity; also recorded: as active as the known DA agonist RU 29717,–,8.55,63.3 ± 4.1,0.62 ± 0.04,comparable in activity to RU 29717,slightly more potent than RU 29717,–,–,–
"CCCN1CCO[C@@H]2c3cccc4[nH]cc(c34)C[C@H]21 [RU 29717, N-PROPYL-9-OXAERGOLINE, reference compound]",46.9 ± 2.0,0.46 ± 0.02,88.4,2.30 ± 0.16,–,–,8.52,51.0 ± 4.1,0.50 ± 0.04,–,–,Its activity as an emetic is a significant problem,"extremely potent direct acting dopaminergic agonist, comparing favorably with pergolide",has adrenergic and serotonergic activity
CCCN1CCOC2c3cccc(O)c3CCC21 (centres unmarked) [Compound B],98.0 ± 12.2,0.96 ± 0.12,17.3,4.80 ± 0.37,useful levels of dopamine agonist activity,some activity,7.10,–,–,–,–,–,–,–
"CN1CCc2cccc3c2[C@H]1Cc1ccc(O)c(O)c1-3 [Apomorphine, reference compound]",–,–,–,–,–,–,8.49,–,–,–,–,–,–,–
